Experimental data published in patent US11883444B2, “Inhibition of enteric infection through the modulation of microbiota” (priority 2017, dated 2024).

How the values were obtained:
Type in all cases: in vivo
[1] = test system: Clostridium cluster IV and XIVa; assay: Intestinal colonization of Clostridia in GF mice, qPCR of fecal DNA; details: metabolite in drinking water of GF mice gavaged with Clostridia consortium; FIG. 4D, 9C
S. Typhimurium ΔspiA = S. Typhimurium ΔspiA oral infection of mice: pathogen loads, cecal histology, survival
Procedure: (§1) Reconstitution of GF mice with cecal contents and defined bacteria. Cecal contents from single neonatal and 7-week old SPF mice were diluted into 50 ml (per one adult mouse) or 5 ml (per one 4, 12, 16-day old mouse) of PBS, and passed through a 70 μm cell strainer to eliminate clumps and debris under sterile conditions) under an atmosphere of 5% H2, 5% CO2 and 90% N2 in an anaerobic growth chamber (Coy Manufacturing, Grass Lake, MI). Then 200 μl of the suspension was processed by intragastric gavage into each of the recipient GF mice. Bacteroides species were anaerobically grown at 37° C. overnight in pre-reduced chopped-meat broth (Anaerobe systems, Morgan Hill, CA). E. coli were grown aerobically overnight in LB broth with shaking.
(§2) Enteric pathogen infection. Kanamycin (Km)-resistant and Streptomycin (Sm)-resistant Salmonella enterica serovar Typhimurium (S. Typhimurium) SL1344 ΔspiA was a gift from Dr. Denise Monack, Stanford University. Kanamycin (Km)-resistant wild-type Citrobacter rodentium strain DBS120 (pCRP1::Tn5) was a gift from Dr. David Schauer, Massachusetts Institute of Technology. […] Mice were infected by oral gavage with 0.2 ml of PBS containing approximately 5×10^7 CFU of S. Typhimurium, and 1×10^9 CFU of C. rodentium. […] Mouse survival was monitored for 7 days after infection. […]

C. rodentium = C. rodentium oral infection of mice: pathogen loads in feces; details: adult mice, vancomycin in drinking water; day 25-30 after infection; FIG. 2B
Procedure: as §1, §2

fecal microbiota = assay: 16S rRNA gene analysis of the fecal microbiota; details: adult mice; FIG. 7, FIG. 2D
Procedure: Fecal pellet DNA extraction and 16S rRNA gene sequencing and sequence curation. Fecal samples were freshly collected and DNA was extracted using the E.Z.N.A® stool DNA kit. Amplicons were generated of the V4 region within the 16S rRNA gene and the fragments were sequenced using an Illumina MiSeq (14). These sequences were curated using Mothur (v.1.35) (14, 15) and sequences were binned into operational taxonomic units (OTUs). Taxonomic assignments were determined using a naive Bayesian classifier with the Ribosomal Database Project (RDP) training set (version 10) requiring an 80% bootstrap confidence score (16). Treatment with vancomycin and SCFAs and special diet. Vancomycin (250 mg/L) was administered in the mouse drinking water for 7 days before S. Typhimurium and C. rodentium infection and the treatment was kept during the length of the experiment.

Structure (SMILES)	enhanced colonization of Clostridia of IV and XIVa clusters [1]	reduction of intestinal loads of S. Typhimurium ΔspiA (S. Typhimurium ΔspiA; GF mice given succinate in drinking water and Clostridia consortium by gavage, FIG. 4E, F)	increase of S. Typhimurium colonization in fecal and cecal contents (S. Typhimurium ΔspiA; adult mice, vancomycin in drinking water, day 1 after infection, FIG. 2C)	higher C. rodentium pathogen loads in the feces vs untreated mice (C. rodentium)	change of fecal microbiota composition (fecal microbiota)
CC(=O)O [acetate]	not				
CC(O)C(=O)O (stereo not shown) [lactate]	not				
O=C(O)CCC(=O)O [succinate]	4 to 5 logs	~100 fold			
CN[C@H](CC(C)C)C(=O)N[C@H]1C(=O)N[C@@H](CC(N)=O)C(=O)N[C@H]2C(=O)N[C@H]3C(=O)N[C@H](C(=O)N[C@H](C(=O)O)c4cc(O)cc(O)c4-c4cc3ccc4O)[C@H](O)c3ccc(c(Cl)c3)Oc3cc2cc(c3O[C@@H]2O[C@H](CO)[C@@H](O)[C@H](O)[C@H]2O[C@H]2C[C@](C)(N)[C@H](O)[C@H](C)O2)Oc2ccc(cc2Cl)[C@H]1O [vancomycin]			4 to 5 logs	~6 logs	depleted the microbiota of Clostridiales and Bacteroidales and increased the abundance of Enterobacteriaceae and Lactobacillaceae
